ChEMBL document CHEMBL2434967, “Synthesis, characterization, antiparasitic and cytotoxic evaluation of thioureas conjugated to polyamine scaffolds” (Eur J Med Chem, 2013)

Assays:
[1] = Cytotoxicity against human WHCO1 cells after 48 hrs by MTT assay; assay type: functional, cell-based; details: WHCO1, 48 h
Trichomonas vaginalis = experiment: Antimicrobial activity against Trichomonas vaginalis G3 assessed as growth inhibition at 10 uM after 24 hrs by hemocytometry; assay type: functional; details: G3, 24 h, read-out: GI
[2] = Inhibition of beta-hematin formation after overnight incubation by NP-40 detergent-mediated spectroscopic analysis; assay type: functional
Plasmodium falciparum [3] = experiment: Resistance index, ratio of IC50 for chloroquine-resistant Plasmodium falciparum Dd2 to IC50 for chloroquine-sensitive Plasmodium falciparum NF54; assay type: functional
Plasmodium falciparum [4] = experiment: Antiplasmodial activity against chloroquine-resistant erythrocyte stages of Plasmodium falciparum Dd2 by parasite lactate dehydrogenase assay; assay type: functional, organism-based
Plasmodium falciparum [5] = experiment: Antiplasmodial activity against chloroquine-sensitive erythrocyte stages of Plasmodium falciparum NF54 by parasite lactate dehydrogenase assay; assay type: functional, organism-based

Row | SMILES | IC50 [1] | inhibition of growth at 10 µM (Trichomonas vaginalis) | IC50 [2] | Ratio IC50 (Plasmodium falciparum [3]) | IC50 (Plasmodium falciparum [4]) | IC50 (Plasmodium falciparum [5])
1 | CCCNC(=S)NCCCNc1ccnc2cc(Cl)ccc12 | 43800 nM | 34.9% | 58200 nM | 1.6 | 260 nM | 160 nM
2 | S=C(NCCCNC(=S)NCCCNc1ccnc2cc(Cl)ccc12)NCCCNc1ccnc2cc(Cl)ccc12 | 38400 nM | 55.9% | 6520 nM | 0.7 | 230 nM | 340 nM
3 | S=C(NCCCNc1ccnc2cc(Cl)ccc12)NCCN(CCNC(=S)NCCCNc1ccnc2cc(Cl)ccc12)CCNC(=S)NCCCNc1ccnc2cc(Cl)ccc12 | 6210 nM | 51.4% | 4480 nM | 5.8 | 520 nM | 90 nM
4 | S=C(NCCCNc1ccnc2cc(Cl)ccc12)NCCCN(CCCCN(CCCNC(=S)NCCCNc1ccnc2cc(Cl)ccc12)CCCNC(=S)NCCCNc1ccnc2cc(Cl)ccc12)CCCNC(=S)NCCCNc1ccnc2cc(Cl)ccc12 | 990 nM | 58.7% | < 4500 nM | 2.5 | 510 nM | 200 nM
5 | CCN(CC)CCCC(C)Nc1ccnc2cc(Cl)ccc12 (stereo unspecified) [CHLOROQUINE] | – | – | 73800 nM | – | – | –
6 | Cc1ncc([N+](=O)[O-])n1CCO [METRONIDAZOLE] | – | 100% | – | – | – | –
